SMILES strings stand for the structures.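 Grown in 96-well plates, cells were treated for 48 hours with each compound at five concentrations. Insufficient inhibition: endpoint recorded as highest concentration tested. GI50 marks 50% less growth. TGI: concentration producing complete growth inhibition.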 Where only a bound is given, the exact number is not on record here.

Test systems include ACHN renal; A549 NSCLC; SF-539 CNS; RXF 393 renal; U251 CNS; NCI-H23 lung; K-562 leukemia; M14 melanoma; SW-620 colon; NCI-H522 lung.
Holding throughout (assay): NCI-60 cell line screen, 48 h

As for `O=C(Nc1ccc(N2CCNCC2)cc1)c1[nH]ncc1Nc1ncnc2sc3c(c12)CCC3`, the GI50 is 0.181 µM with ACHN renal; 0.136 µM in the test on A549 NSCLC; 0.399 µM with SF-539 CNS; 0.394 µM with RXF 393 renal; 0.108 µM with U251 CNS; 0.268 µM in the test on NCI-H23 lung. Further, the GI50 in the test on K-562 leukemia was 0.115 µM; in the test with M14 melanoma, 0.146 µM; with SW-620 colon, 0.157 µM. For the same compound, the TGI worked out at 1.16 µM with ACHN renal; 0.696 µM with A549 NSCLC; 1.81 µM in the test with SF-539 CNS; 1.89 µM with RXF 393 renal; 0.244 µM in the test on U251 CNS; 1.85 µM in the test on NCI-H23 lung. Also, the TGI in the test on K-562 leukemia was determined as 0.472 µM; in the test with M14 melanoma, 1.64 µM; in the test with SW-620 colon, 0.756 µM.

For the compound `CNC(P(=O)([O-])[O-])P(=O)([O-])[O-].N.N.[Pt+2]`, the GI50 in the test on A549 NSCLC, in the test on SF-539 CNS, in the test on RXF 393 renal, in the test on NCI-H522 lung, with U251 CNS and in the test on NCI-H23 lung was > 100 µM in each case. Further, the GI50 with M14 melanoma and with SW-620 colon was > 100 µM each time. Moreover, the TGI in the test with A549 NSCLC, in the test with SF-539 CNS, with RXF 393 renal, with NCI-H522 lung, with U251 CNS and in the test on NCI-H23 lung was > 100 µM throughout. For the same compound, the TGI in the test with M14 melanoma and with SW-620 colon was > 100 µM throughout.

Consider `CCOC(=O)c1c2c(n3ccc(NC(=O)CCN4CCCC4)cc13)C(=O)c1ncccc1C2=O`, for which the GI50 was 0.0382 µM with ACHN renal; 1.03 µM in the test with A549 NSCLC; 1.52 µM in the test on SF-539 CNS; 1.41 µM in the test with RXF 393 renal; 1.27 µM in the test with U251 CNS. Besides, the TGI in the test on ACHN renal stood at 1.52 µM; in the test with A549 NSCLC, 2.67 µM; with SF-539 CNS, 3.19 µM; in the test with RXF 393 renal it was 3.36 µM; in the test with U251 CNS it was 2.82 µM.

`O=C(c1ccccc1)C(c1ccccc1)C1(O)C(=O)Nc2c(Cl)cc(Cl)cc21` (configuration not stated): the TGI amounted to 33.1 µM in the test on ACHN renal; 41.8 µM in the test with A549 NSCLC; 34.4 µM in the test with RXF 393 renal; 34.1 µM in the test on NCI-H522 lung; 96.6 µM with U251 CNS; 35.5 µM in the test with NCI-H23 lung. In addition, the TGI came to 50.3 µM in the test with K-562 leukemia, 37.9 µM in the test with M14 melanoma and 34.3 µM in the test with SW-620 colon.

Regarding `CCC[CH2][Sn-]([CH2]CCC)([CH2]CCC)[O]c1cc(Cl)c(Cl)cc1Cl`, the GI50 with ACHN renal is 0.19 µM; in the test on A549 NSCLC, 0.205 µM; in the test on SF-539 CNS, 0.267 µM; in the test with RXF 393 renal, 0.196 µM; in the test on U251 CNS, 0.179 µM; in the test with NCI-H23 lung, 0.23 µM. Also, the values for the GI50 with K-562 leukemia and with SW-620 colon were 0.165 µM and 0.207 µM, respectively. In addition, the TGI worked out at 0.339 µM with ACHN renal; 0.502 µM in the test on A549 NSCLC; 0.437 µM with SF-539 CNS; 0.509 µM in the test on RXF 393 renal; 0.35 µM in the test with U251 CNS; 1.17 µM in the test with NCI-H23 lung. The TGI in the test with K-562 leukemia was found to be 0.411 µM; in the test with SW-620 colon, 0.44 µM.

As to `CC1=C(C)C(=O)c2c(cc3ccc4ccccc4n23)C1=O`, the TGI in the test on ACHN renal, with A549 NSCLC, in the test with SF-539 CNS, in the test on RXF 393 renal, with U251 CNS and in the test with NCI-H23 lung was > 100 µM throughout. Further, the TGI in the test on K-562 leukemia, in the test with M14 melanoma and in the test with SW-620 colon was > 100 µM throughout.

With `COc1nc(N(C)O)nc(N(C)O)n1`, the GI50 in the test on ACHN renal is 0.625 µM; in the test with A549 NSCLC, 1.39 µM; in the test with SF-539 CNS, 1.26 µM; in the test on RXF 393 renal, 1.95 µM; in the test on NCI-H522 lung it was 2.53 µM; in the test on U251 CNS, 0.716 µM. Further, the GI50 is 2.14 µM in the test on NCI-H23 lung, 2.94 µM in the test with K-562 leukemia and 2.57 µM in the test with SW-620 colon. Also, the TGI in the test on ACHN renal is > 100 µM; in the test with A549 NSCLC, > 100 µM; with SF-539 CNS, 9.69 µM; with RXF 393 renal, > 100 µM; with NCI-H522 lung it was > 100 µM; with U251 CNS, > 100 µM. For the same compound, the TGI with NCI-H23 lung, in the test with K-562 leukemia and with SW-620 colon was > 100 µM throughout.

For `N=C1C(c2nc(-c3ccc(Br)cc3)cs2)=C(O)CN1Cc1cccnc1`, the GI50 with ACHN renal was 16.4 µM; in the test on A549 NSCLC, 26.6 µM; in the test on SF-539 CNS it was 15.5 µM; in the test with RXF 393 renal it was 7.98 µM; with U251 CNS, 22.1 µM; in the test with NCI-H23 lung, 22.5 µM. Besides, the values for the GI50 in the test with K-562 leukemia and in the test with SW-620 colon were 8.17 µM and 4.75 µM, respectively. Further, the TGI in the test on ACHN renal was 98.8 µM; in the test with A549 NSCLC it was > 100 µM; with SF-539 CNS it was 84.8 µM; with RXF 393 renal, 31.3 µM; in the test on U251 CNS, > 100 µM; in the test with NCI-H23 lung it was > 100 µM. Further, the TGI was > 100 µM in the test with K-562 leukemia and 26.7 µM in the test with SW-620 colon.

Consider `O=c1c2ccccc2[nH]c(=S)n1-c1ccc(Br)cc1`, for which the TGI with ACHN renal, in the test with A549 NSCLC, in the test with SF-539 CNS, in the test with RXF 393 renal, with NCI-H522 lung and in the test with U251 CNS was > 100 µM throughout. Besides, the TGI in the test with NCI-H23 lung, in the test with K-562 leukemia and in the test with SW-620 colon was > 100 µM in each case.

Consider `Cc1cc2c(c(C#N)c1C)NC(=O)CCC2=O`, for which the TGI in the test on ACHN renal, in the test with A549 NSCLC, with SF-539 CNS, in the test with RXF 393 renal, in the test on U251 CNS and in the test on NCI-H23 lung was > 100 µM in each case. For the same compound, the TGI with K-562 leukemia, in the test with M14 melanoma and in the test on SW-620 colon was > 100 µM each time.

As for `Cn1c(=O)nc2n(-c3ccc(Cl)cc3)c3ccc(Cl)cc3nc-2c1=O`, the TGI in the test with A549 NSCLC was > 100 µM; with RXF 393 renal, 7.93 µM; in the test with NCI-H522 lung, 21.3 µM; with NCI-H23 lung, 8.65 µM; in the test with K-562 leukemia it was 37.4 µM; in the test on M14 melanoma, 21.8 µM. For the same compound, the TGI with SW-620 colon came to 19.2 µM.

Source of the values: PubChem BioAssay (NCI).
